# Experimental data reported in US20190209567A1, “A Specific Trifluoroethyl Quinoline Analogue For Use In The Treatment of APDS” (UCB Biopharma SPRL, priority 2016, published 2019).
# Where two headings read alike, the source gives them in different places.
# How the values were obtained:
# [1] = test system: pS6^S235/236 (PI3K signalling) in T cell subsets in whole blood; assay: Ex vivo pS6^S235/236 expression in T cell subsets in whole blood by flow cytometry; assay type: cell-based, human; details: for IC50: Homo sapiens, T-cell
# Description: (§1) The activity of N—{(R)-1-[8-Chloro-2-(1-oxypyridin-3-yl)quinolin-3-yl]-2,2,2-trifluoroethyl}pyrido[3,2-d]pyrimidin-4-ylamine [hereinafter referred to as “Compound (A)”] on PI3K signalling was assessed by measuring levels of either phosphorylated serine 473 of AKT (pAKT^S473) or phosphorylated serine 235/236 of ribosomal protein S6 (pS6^S235/236) using flow cytometry. The results obtained are depicted in the accompanying drawings, in which:
# The levels of pS6^S235/236 in different T cell (CD3+CD4+; CD3+CD8+) subsets in total blood from healthy donors, and from APDS1 and APDS2 patients, were analyzed by flow cytometry. The blood was incubated ex vivo for 45 minutes at 37° C. with different doses of Compound (A) (0, 10, 30, 100, 300, 1000 and 2000 nM).
# The phosphorylation of ribosomal protein S6 at Ser 235/236 (pS6^S235/236) in cells from healthy donors, and from APDS1 and APDS2 patients, was analyzed ex vivo in the presence and absence of Compound (A) (10-2000 nM) in different T cell (CD3+CD4+; CD3+CD8+) subsets. As noted above, total blood was incubated ex vivo for 45 minutes at 37° C.
# Data were generated with blood from two (2) healthy donors, three (3) APDS1 patients and one (1) APDS2 patient.
# [2] = APD001 Phase 1b open-label 12-week clinical study in APDS1 and APDS2 patients; assay type: in vivo, human; details: 12 weeks of treatment
# Source text: APD001 is an ongoing Phase 1b, multicentre, open-label, 12-week study to assess the efficacy, safety and tolerability of Compound (A) in male and female adolescents (aged from 12 to 18 years) and adults with APDS1 and APDS2.
# [3] = test system: pAKT^S473 (PI3K signalling) in T cell lymphoblasts; assay: pAKT^S473 expression in T cell lymphoblast cultures by flow cytometry, with and without OKT3 activation; assay type: cell-based, human; details: for IC50: Homo sapiens, T-cell
# Description: as §1
# Analysis of phosphorylated AKT at Ser 473 (pAKT^S473) levels in T cell lymphoblast cultures by flow cytometry was performed with peripheral blood lymphocytes from healthy donors, and from APDS1 and APDS2 patients, with and without T cell receptor activation.
# Generation of T cell lymphoblasts was performed in accordance with the method described by M-C. Deau et al. in J. Clin. Invest., 2014, 124, 3923-3928. In brief, peripheral blood mononuclear cells were isolated by Ficoll-Paque density gradient centrifugation (Pharmacia Biotech; catalogue no. #171-44003) and washed twice with RPMI 1640 GlutaMax medium (Invitrogen). T cell lymphoblasts were obtained by stimulating 1×10^6 cells per mL in RPMI 1640 GlutaMax medium supplemented with 10% human AB serum, penicillin/streptomycin (Invitrogen), PMA (phorbol 12-myristate 13-acetate; 20 ng/mL; Sigma-Aldrich) and ionomycin (1 μmol/L). After 2 to 3 days of activation, viable cells were separated by Ficoll-Paque density-gradient centrifugation and washed twice with RPMI 1640 GlutaMax medium, then cultured in RPMI 1640 GlutaMax medium supplemented with 10% human AB serum and 100 U/mL pro-IL2.
# Analysis of phosphorylated AKT at Ser 473 levels in T cell lymphoblast cultures was performed once sufficient cells were available for the analysis (e.g. 6-12 days after starting the culture with pro-IL2).
# The activity of Compound (A) was assessed in (i) the absence or (ii) the presence of T cell activation by receptor cross-linking with OKT3:
# (i) Incubation of APDS1 and APDS2 patient cells for 30 minutes with Compound (A) at different concentrations (0, 1, 3, 10, 30, 100 and 200 nM). A positive control for pAKT staining (simulated cells with OKT3) was included (8×10^6 cells/patient).
# (ii) Incubation of APDS1 and APDS2 patient cells for 30 minutes with Compound (A) at different concentrations (0, 1, 3, 10, 30, 100 and 200 nM) stimulated with anti-CD3 (OKT3; T cell receptor activation).
# Corresponding assays were performed with T cell lymphoblasts derived from healthy donors (CTRL).
smiles,measurement,setting,value
"[O-][n+]1cccc(-c2nc3c(Cl)cccc3cc2[C@@H](Nc2ncnc3cccnc23)C(F)(F)F)c1 [Compound (A), N—{(R)-1-[8-Chloro-2-(1-oxypyridin-3-yl)quinolin-3-yl]-2,2,2-trifluoroethyl}pyrido[3,2-d]pyrimidin-4-ylamine]",Inhibition of pS6^S235/236 expression (in words),"[1]; CD3+ and CD8+ cells, one APDS2 patient",showed potent inhibition
same,IC50,"[1]; CD3+ and CD8+ cells, one APDS2 patient, based on concentration-response curves, read-out: IC50, inhibition of pS6^S235/236 expression",≤ 100 nM
same,IC50,"[1]; CD3+ cells, 3 APDS1 patients, read-out: Geomean IC50 (adjusted for free concentration), pS6^S235/236 expression",51 nM
same,IC50,"[1]; CD3+ cells, 3 APDS1 patients, read-out: Range of IC50 (adjusted for free concentration), pS6^S235/236 expression",36 to 67 nM
same,IC50,"[1]; CD4+ cells, 3 APDS1 patients, read-out: Geomean IC50 (adjusted for free concentration), pS6^S235/236 expression",41 nM
same,IC50,"[1]; CD4+ cells, 3 APDS1 patients, read-out: Range of IC50 (adjusted for free concentration), pS6^S235/236 expression",29 to 56 nM
same,IC50,"[1]; CD8+ cells, 3 APDS1 patients, read-out: Geomean IC50 (adjusted for free concentration), pS6^S235/236 expression",56 nM
same,IC50,"[1]; CD8+ cells, 3 APDS1 patients, read-out: Range of IC50 (adjusted for free concentration), pS6^S235/236 expression",40 to 72 nM
same,Inhibition of pS6^S235/236 signal (in words),"[1]; three T cell subsets, three APDS1 patients",showed inhibition
same,Tolerability,[2]; APDS patients,well tolerated
same,Clinical outcome,[2]; three APDS patients,some clinical and immunological improvements together with disease activity improvement
same,IC50,"[3]; APDS1 and APDS2 patient-derived T cell lymphoblasts, absence of T cell activation by OKT3, read-out: IC50 range, pAKT expression",3 to 20 nM
same,IC50,"[3]; APDS1 and APDS2 patient-derived T cell lymphoblasts, presence of T cell activation by OKT3, read-out: IC50 range, pAKT expression",7 to 50 nM
same,IC50,"[3]; T lymphoblasts from 3 APDS1 patients, OKT3 +, read-out: Geomean IC50, inhibition of pAKT^S473 expression",21 nM
same,IC50,"[3]; T lymphoblasts from 3 APDS1 patients, OKT3 +, read-out: Range of IC50, inhibition of pAKT^S473 expression",7 to 50 nM
same,IC50,"[3]; T lymphoblasts from 3 APDS1 patients, OKT3 −, read-out: Geomean IC50, inhibition of pAKT^S473 expression",8 nM
same,IC50,"[3]; T lymphoblasts from 3 APDS1 patients, OKT3 −, read-out: Range of IC50, inhibition of pAKT^S473 expression",3 to 12 nM
same,IC50,"[3]; T lymphoblasts from 3 APDS2 patients, OKT3 +, read-out: Geomean IC50, inhibition of pAKT^S473 expression",28 nM
same,IC50,"[3]; T lymphoblasts from 3 APDS2 patients, OKT3 +, read-out: Range of IC50, inhibition of pAKT^S473 expression",21 to 33 nM
same,IC50,"[3]; T lymphoblasts from 3 APDS2 patients, OKT3 −, read-out: Geomean IC50, inhibition of pAKT^S473 expression",13 nM
same,IC50,"[3]; T lymphoblasts from 3 APDS2 patients, OKT3 −, read-out: Range of IC50, inhibition of pAKT^S473 expression",8 to 20 nM
same,IC50,"[3]; T lymphoblasts from 3 healthy donors, OKT3 +, read-out: Geomean IC50, inhibition of pAKT^S473 expression",16 nM
same,IC50,"[3]; T lymphoblasts from 3 healthy donors, OKT3 +, read-out: Range of IC50, inhibition of pAKT^S473 expression",9 to 50 nM
same,Inhibition of pAKT^S473 expression (in words),[3]; basal and activated T lymphoblast cultures,potently inhibited
